Key:
[1] = system: Shionogi mouse mammary carcinoma cells; assay: Androgenic activity: stimulation of proliferation of Shionogi cells; format: cell-based
How it was run: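 Shionogi mouse mammary carcinoma cells, at 20 000 cells/well in medium with 5% charcoal-stripped FCS, were grown 10–12 days with the inhibitor at 10^−7 M and 10^−6 M in triplicate. Medium was changed every 3–4 days. Proliferation was read by Coulter counting and given as % stimulation.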

estrogen receptor = biological target: T1, estrogen receptor (Rattus norvegicus, UniProt P06211); assay: Estrogen receptor (ER) assay: inhibition of [3H]E2 binding, uterine cytosol
T1 construct: from tissue; host or cells: uterine cytosol of gonadectomized female Sprague-Dawley rats
T1 sequence (P06211 1-600): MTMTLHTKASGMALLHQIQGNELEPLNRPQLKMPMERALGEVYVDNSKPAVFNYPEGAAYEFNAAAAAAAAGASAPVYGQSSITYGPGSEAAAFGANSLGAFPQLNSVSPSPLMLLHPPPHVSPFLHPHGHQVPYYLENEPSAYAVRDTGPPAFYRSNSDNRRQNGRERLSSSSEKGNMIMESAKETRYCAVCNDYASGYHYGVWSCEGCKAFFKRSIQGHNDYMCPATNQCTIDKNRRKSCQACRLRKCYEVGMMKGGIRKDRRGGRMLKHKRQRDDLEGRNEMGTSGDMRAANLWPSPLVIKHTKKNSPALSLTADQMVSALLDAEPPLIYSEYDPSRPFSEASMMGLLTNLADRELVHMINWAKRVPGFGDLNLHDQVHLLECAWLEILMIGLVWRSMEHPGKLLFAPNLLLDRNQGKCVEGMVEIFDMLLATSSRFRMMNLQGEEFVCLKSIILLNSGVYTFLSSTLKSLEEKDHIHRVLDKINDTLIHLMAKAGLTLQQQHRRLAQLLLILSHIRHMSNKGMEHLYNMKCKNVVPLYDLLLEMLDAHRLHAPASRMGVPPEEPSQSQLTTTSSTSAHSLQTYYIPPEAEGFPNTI
Protocol: Female Sprague-Dawley rats (Crl: CD(SD)Br) weighing 200-300 g were obtained from Charles-River Inc. (St-Constant, Québec, Canada). The rats were gonadectomized under general anesthesia (Isoflurane) and killed by cervical dislocation 24 hours later. The uteri were rapidly removed, dissected free from adhering tissue and frozen on dry-ice. Uteri were kept at −80° C. until assay. All subsequent steps were performed at 0-4° C. Uteri were homogenized in 10 vol (wt/vol) of buffer A (25 mM Tris-HCI, 1.5 mM EDTA disodium salt, 10 mM α-monothioglycerol, 10% glycerol, and 10 mM sodium molybdate, pH 7.4), using a Polytron PT-10 homogenizer (Brinkman Instruments, Canada) at a setting of 5 for three periods of 10 sec, with intervals of 10 sec for cooling. The homogenate was then centrifuged at 105,000×g for 60 min in a Beckman L5-65 ultracentrifuge (Fullerton, Calif.). The protein concentration of the cytosol fraction was measured according to the method of Bradford (Anal. Biochem. 72: 248-254, 1976), using bovine serum albumin as standard.
Estrogen binding was measured using the dextran-coated charcoal adsorption technique as described previously (Asselin et al., Endocrinology, 101: 666-671, 1977; Asselin and Labrie, J. Steroid Biochem., 9: 1079-1082, 1978). Briefly, [^3H]E2 solubilized in ethanol were diluted into buffer A. Aliquots of uterine cytosol preparation (0.1 ml) were incubated with 5 nM [^3H]E2 (˜200,000 cpm, 0.1 ml) in the presence or absence of the indicated concentrations of unlabeled compounds (0.1 ml, prepared in buffer A containing 10% ethanol) for 3 h at room temperature. Unbound steroids were then separated by incubation for 15 min at 0-4° C. with 0.3 ml 0.5% Norit-A and 0.05% Dextran T-70 in buffer B (1.5 mM EDTA disodium salt, 10 mM monothioglycerol, and 10 mM Tris-HCI, pH 7.4) and centrifuged at 3,000×g for 15 min. Aliquots of the supernatant (0.3 ml) were removed for radioactivity measurement.

Compound: CCCC(=O)O[C@]1(C)C(=O)CCC2C3C=C(C)C4=CC(=O)CC[C@]4(C)C3CC[C@@]21C (some centres unmarked) [EM-1078]
- Androgenic Activity Shionogi, Basal E^−6 ([1]; E^−6): 45
- Androgenic Activity Shionogi, Basal E^−7 ([1]; E^−7): 5
- % Inhibition Estrogen Receptor E^−6 (estrogen receptor; E^−6): 0%
- % Inhibition Estrogen Receptor E^−8 (estrogen receptor; E^−8): 5%

Compound: CCC[C@@H]1CC2C3C=CC4=CC(=O)CC[C@]4(C)C3CC[C@]2(C)C1=O (some centres unmarked) [EM-1097]
- Androgenic Activity Shionogi, Basal E^−6 ([1]; E^−6): −12
- Androgenic Activity Shionogi, Basal E^−7 ([1]; E^−7): 18
- % Inhibition Estrogen Receptor E^−6 (estrogen receptor; E^−6): 1%
- % Inhibition Estrogen Receptor E^−8 (estrogen receptor; E^−8): 0%

Compound: CN1C(=O)C=C[C@]2(C)C3CC[C@@]4(C)C(CC[C@@]45CCCC(=O)O5)C3CCC12 (some centres unmarked) [EM-1122-CS]
- Androgenic Activity Shlonogl, Basal E^−6 ([1]; Table 5 column 9, E^−6): −11%
- Androgenic Activity Shlonogl, Basal E^−7 ([1]; Table 5 column 9, E^−7): 0%
- % Inhibition Estrogen Receptor E^−6 (estrogen receptor; Table 5 column 16, E^−6): 0%
- % Inhibition Estrogen Receptor E^−8 (estrogen receptor; Table 5 column 16, E^−8): 2%

Compound: C[C@]12CCC3c4cc([N+](=O)[O-])c(O)cc4CCC3C1CC[C@@]21CCCC(=O)O1 (stereo partly drawn) [EM-1124, 2-Nitro-1,3,5(10)-estraetriene-3-ol-17(R)-spiro-2′-(6′-oxo)tetrahydropyran]
- Androgenic Activity Shionogi, Basal E^−6 ([1]; Table 4′, E^−6): −11%
- Androgenic Activity Shionogi, Basal E^−7 ([1]; Table 4′, E^−7): 0%
- % Inhibition Estrogen Receptor E^−6 (estrogen receptor; Table 4′, E^−6): 0%
- % Inhibition Estrogen Receptor E^−8 (estrogen receptor; Table 4′, E^−8): 0%

Compound: CC1(C)CCC2(CCC3C4CCc5cc(O)c([N+](=O)[O-])cc5C4CCC32C)OC1=O (centres unmarked) [EM-1125-CS]
- Androgenic Activity Shionogi, Basal E^−6 ([1]; Table 4′, E^−6): −10%
- Androgenic Activity Shionogi, Basal E^−7 ([1]; Table 4′, E^−7): 3%
- % Inhibition Estrogen Receptor E^−6 (estrogen receptor; Table 4′, E^−6): 2%
- % Inhibition Estrogen Receptor E^−8 (estrogen receptor; Table 4′, E^−8): 2%

Compound: CC1CCC2(CCC3C4CCc5cc(O)c([N+](=O)[O-])cc5C4CCC32C)OC1=O [EM-1126, 2-Nitro-1,3,5(10)-estratrien-3-ol-17(R)-spiro-2′-(5′-methyl-6′-oxo)tetrahydropyran]
- Androgenic Activity Shionogi, Basal E^−6 ([1]; Table 4′, E^−6): −8%
- Androgenic Activity Shionogi, Basal E^−7 ([1]; Table 4′, E^−7): 0%
- % Inhibition Estrogen Receptor E^−6 (estrogen receptor; Table 4′, E^−6): 0%
- % Inhibition Estrogen Receptor E^−8 (estrogen receptor; Table 4′, E^−8): 1%

Compound: CC1CCC2(CCC3C4CCc5cc(O)c([N+](=O)[O-])cc5C4CCC32C)OC1=O [EM-1131, 2-Nitro-1,3,5(10)-estratrien-3-ol-17(R)-spiro-2′-(5′-methyl-6′-oxo)tetrahydropyran]
- Androgenic Activity Shionogi, Basal E^−6 ([1]; Table 4′, E^−6): 0%
- Androgenic Activity Shionogi, Basal E^−7 ([1]; Table 4′, E^−7): 0%
- % Inhibition Estrogen Receptor E^−6 (estrogen receptor; Table 4′, E^−6): 3%
- % Inhibition Estrogen Receptor E^−8 (estrogen receptor; Table 4′, E^−8): 5%

Compound: CC1(C)CC[C@@]2(CCC3C4CCc5cc(F)ccc5C4CC[C@@]32C)OC1=O (some centres unmarked) [EM-1157-CS]
- Androgenic Activity Shionogi, Basal E^−6 ([1]; Table 4′, E^−6): −12%
- Androgenic Activity Shionogi, Basal E^−7 ([1]; Table 4′, E^−7): 16%
- % Inhibition Estrogen Receptor E^−6 (estrogen receptor; Table 4′, E^−6): 0%
- % Inhibition Estrogen Receptor E^−8 (estrogen receptor; Table 4′, E^−8): 0%

Compound: CC(=O)O[C@]1(C(=O)N(C)C)CCC2C3C=C(C)C4=CC(=O)CC[C@]4(C)C3CC[C@@]21C (some centres unmarked) [EM-1159]
- Androgenic Activity Shionogi, Basal ([1]; E^−6): −14
- Androgenic Activity Shionogi, Basal ([1]; E^−7): 15
- % Inhibition Estrogen Receptor (estrogen receptor; E^−6): 1%
- % Inhibition Estrogen Receptor (estrogen receptor; E^−8): 0%

Compound: CCCCN(C)C(=O)[C@@]1(OC(C)=O)CCC2C3C=C(C)C4=CC(=O)CC[C@]4(C)C3CC[C@@]21C (some centres unmarked) [EM-1165]
- Androgenic Activity Shionogi, Basal ([1]; E^−6): −17
- Androgenic Activity Shionogi, Basal ([1]; E^−7): 5
- % Inhibition Estrogen Receptor (estrogen receptor; E^−6): 0%
- % Inhibition Estrogen Receptor (estrogen receptor; E^−8): 0%

Compound: CC12CCC3c4ccc(F)cc4CCC3C1CCC21CCCC(=O)O1 (centres unmarked) [EM-1170-CS]
- Androgenic Activity Shionogi, Basal E^−6 ([1]; Table 4′, E^−6): −27%
- Androgenic Activity Shionogi, Basal E^−7 ([1]; Table 4′, E^−7): 12%
- % Inhibition Estrogen Receptor E^−6 (estrogen receptor; Table 4′, E^−6): 0%
- % Inhibition Estrogen Receptor E^−8 (estrogen receptor; Table 4′, E^−8): 0%

Compound: CCC[C@]1(F)CC2C3C=CC4=CC(=O)CC[C@]4(C)C3CC[C@]2(C)C1=O (some centres unmarked) [EM-1183]
- Androgenic Activity Shionogi, Basal E^−6 ([1]; E^−6): −17
- Androgenic Activity Shionogi, Basal E^−7 ([1]; E^−7): 0
- % Inhibition Estrogen Receptor E^−6 (estrogen receptor; E^−6): 0%
- % Inhibition Estrogen Receptor E^−8 (estrogen receptor; E^−8): 0%

Compound: CC(=O)[C@@]1(OC(=O)CCCCF)CCC2C3C=C(C)C4=CC(=O)CC[C@]4(C)C3CC[C@@]21C (some centres unmarked) [EM-1195-CS]
- Androgenic Activity Shionogi, Basal ([1]; E^−6): −34
- Androgenic Activity Shionogi, Basal ([1]; E^−7): −27
- % Inhibition Estrogen Receptor (estrogen receptor; E^−6): 0%
- % Inhibition Estrogen Receptor (estrogen receptor; E^−8): 0%

Compound: CC(C)C[C@@H]1CC2C3C=CC4=CC(=O)CC[C@]4(C)C3CC[C@]2(C)C1=O (some centres unmarked) [EM-1273-CS]
- Androgenic Activity Shionogi, Basal E^−6 ([1]; E^−6): −36
- Androgenic Activity Shionogi, Basal E^−7 ([1]; E^−7): 12
- % Inhibition Estrogen Receptor E^−6 (estrogen receptor; E^−6): 0%
- % Inhibition Estrogen Receptor E^−8 (estrogen receptor; E^−8): 0%

From patent US6541463B1, “Inhibitors of type 5 and type 3 17β-hydroxysteroid dehydrogenase and methods for their use” (Endorecherche, Inc., priority 1998, dated 2003)
